From BindingDB's records for doi:10.3109/14756366.2011.604852 (Erzincan University, 2012)

Experiments:
[1] = target: Carbonic anhydrase 1 (Homo sapiens, UniProt P00915); experiment: Esterase Activity Assay; settings: pH 7.4; 25 °C
Protocol: (§1) CA activity was assayed according to method of Verpoorte et al. [Verpoorte et al., J. Biol. Chem., 242:4221-4229] described previously by Innocenti et al. [Innocenti et al., Bioorg. Med. Chem., 18:2159-2164; Innocenti et al., Bioorg. Med. Chem. Lett., 20:5050-5053] CA activity was determined by following thechange in absorbance at 348 nm of 4-nitrophenylacetate (NPA) to 4-nitrophenylate ion over a period of 3 min at 25°C using a spectrophotometer (CHEBIOS UV-VIS). The enzymatic reaction, in a total volume of 3.0 mL, contained 1.4 mL 0.05 M Tris-SO4 buffer (pH 7.4), 1 mL, 3 mM 4-nitrophenylacetate, 0.5 mL H2O and 0.1 mL enzyme solution. A reference measurement was obtained by preparing the same cuvette without enzyme solution. The inhibitory effects of ampicillin sulfate, ceftriaxone, ceftizoxime, ranitidine were examined. All compounds were tested in triplicate at each concentration used. Different inhibitor concentrations were used. HCA-I enzyme activities were measured for ceftriaxone (0.003-0.033 mM), ceftizoxime (0.017-0.096 mM), ranitidine (0.026-0.053 mM) at cuvette concentrations and HCAII enzyme activities were measured for ampicillin sulfate (0.038-0.095 mM), ceftriaxone (0.003-0.021 mM), ceftizoxime (0.026-0.061 mM) and ranitidine (0.032-0.058 mM) at cuvette concentrations.

[2] = target: Carbonic anhydrase 2 (Homo sapiens, UniProt P00918); experiment: Esterase Activity Assay; settings: pH 7.4; 25 °C
Protocol: as §1

Sequence of Carbonic anhydrase 1 (P00915 whole entry): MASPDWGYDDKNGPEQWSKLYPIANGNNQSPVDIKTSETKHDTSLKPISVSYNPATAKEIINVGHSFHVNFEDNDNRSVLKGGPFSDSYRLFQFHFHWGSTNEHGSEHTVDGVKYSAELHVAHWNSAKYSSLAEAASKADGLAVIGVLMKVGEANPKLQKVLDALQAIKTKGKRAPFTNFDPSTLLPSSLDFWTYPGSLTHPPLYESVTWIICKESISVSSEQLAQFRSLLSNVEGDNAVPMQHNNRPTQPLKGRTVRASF

SMILES: CO/N=C(\C(=O)N[C@@H]1C(=O)N2C(C(=O)O)=C(CSc3nc(=O)c(=O)[nH]n3C)CS[C@H]12)c1csc(N)n1 [(6R,7R)-7-{2-(2-Amino-thiazol-4-yl)-2-[(Z)-methoxyimino]-acetylamino}-3-(2-methyl-5,6-dioxo-1,2,5,6-tetrahydro-[1,2,4]triazin-3-ylsulfanylmethyl)-8-oxo-5-thia-1-aza-bicyclo[4.2.0]oct-2-ene-2-carboxylic acid]
- IC50 [1]: 27.1 µM
- Ki [1]: 28.5 µM
- IC50 [2]: 21 µM
- Ki [2]: 15.8 µM

SMILES: CC1(C)S[C@@H]2[C@H](NC(=O)[C@H](N)c3ccccc3)C(=O)N2[C@H]1C(=O)O [AY-6108]
- IC50 [2]: 56.8 µM
- Ki [2]: 83 µM

SMILES: CO/N=C(\C(=O)N[C@@H]1C(=O)N2C(C(=O)O)=CCS[C@H]12)c1csc(N)n1 [Ceftizoxime]
- IC50 [1]: 79.4 µM
- Ki [1]: 86.1 µM
- IC50 [2]: 79.1 µM
- Ki [2]: 51.8 µM

SMILES: CN/C(=C\[N+](=O)[O-])NCCSCc1ccc(CN(C)C)o1 [Ranitidine]
- IC50 [1]: 55.5 µM
- Ki [1]: 54.7 µM
- IC50 [2]: 66.1 µM
- Ki [2]: 29.7 µM
